Data on 11 cell lines can be found in the supplement of paper PMC10307832.

Common to all, as to test: relative viability (nuclei count vs DMSO), 5 days (fraction); higher = more cells survive
Compound in the assay “RAF265 + Pictilisib”: Cn1c(Nc2ccc(C(F)(F)F)cc2)nc2cc(Oc3ccnc(-c4ncc(C(F)(F)F)[nH]4)c3)ccc21 [RAF265] + CS(=O)(=O)N1CCN(Cc2cc3nc(-c4cccc5[nH]ncc45)nc(N4CCOCC4)c3s2)CC1 [Pictilisib] (partner 1 µM)
Summed up:
(§1)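 Medians of duplicate plates are given as relative viability. That measure is the nuclei count in treated wells divided by the count in vehicle wells. Counts were taken on 4× images of lung cancer cell lines in 1536-well plates, 5 days after pin-tool dosing the day after seeding with one drug alone or a fixed anchor-drug dose plus five library-drug doses (not always all listed) in √10 steps.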

Compound in the assay “Doramapimod + Vorinostat”: Cc1ccc(-n2nc(C(C)(C)C)cc2NC(=O)Nc2ccc(OCCN3CCOCC3)c3ccccc23)cc1 [Doramapimod] + O=C(CCCCCCC(=O)Nc1ccccc1)NO [Vorinostat] (partner 1 µM)
The method, boiled down:
as §1

Compound in the assay “IPA-3 + Luminespib”: C1=CC=C2C(=C1)C=CC(=C2SSC3=C(C=CC4=CC=CC=C43)O)O [IPA-3] + CCNC(=O)c1noc(-c2cc(C(C)C)c(O)cc2O)c1-c1ccc(CN2CCOCC2)cc1 [Luminespib] (partner 0.01 µM)
Summed up:
as §1

Compound in the assay “RAF265 + Vorinostat”: Cn1c(Nc2ccc(C(F)(F)F)cc2)nc2cc(Oc3ccnc(-c4ncc(C(F)(F)F)[nH]4)c3)ccc21 [RAF265] + O=C(CCCCCCC(=O)Nc1ccccc1)NO [Vorinostat] (partner 1 µM)
Summed up:
as §1

As for LC-2-ad, the relative viability with RAF265 + Pictilisib (first compound 0.01 µM) amounted to 0.441; with RAF265 + Pictilisib (first compound 0.03162 µM) it was 0.361; with RAF265 + Pictilisib (first compound 0.1 µM) it was 0.223; with RAF265 + Pictilisib (first compound 0.3162 µM) it was 0.171; with RAF265 + Pictilisib (first compound 1 µM), 0.0927; with Doramapimod + Vorinostat (first compound 0.02 µM) it was 0.753. The relative viability in the assay with Doramapimod + Vorinostat (first compound 0.06325 µM) is 0.748; in the assay with Doramapimod + Vorinostat (first compound 0.2 µM) it was 0.742; in the assay with Doramapimod + Vorinostat (first compound 0.6325 µM) it was 0.745; with Doramapimod + Vorinostat (first compound 2 µM), 0.764; with IPA-3 + Luminespib (first compound 0.2 µM), 1.21; with IPA-3 + Luminespib (first compound 0.6325 µM), 1.06. Also, the relative viability with IPA-3 + Luminespib (first compound 2 µM) was 1.07; with IPA-3 + Luminespib (first compound 6.325 µM), 1.04; in the assay with IPA-3 + Luminespib (first compound 20 µM), 1.05; with RAF265 + Vorinostat (first compound 0.01 µM), 0.774; in the assay with RAF265 + Vorinostat (first compound 0.03162 µM), 0.7; with RAF265 + Vorinostat (first compound 0.1 µM) it was 0.729. Also, the relative viability came out at 0.596 in the assay with RAF265 + Vorinostat (first compound 0.3162 µM) and 0.387 with RAF265 + Vorinostat (first compound 1 µM).

Take LCLC-97TM1: the relative viability with RAF265 + Pictilisib (first compound 0.01 µM) stood at 0.177; in the assay with RAF265 + Pictilisib (first compound 0.03162 µM), 0.172; with RAF265 + Pictilisib (first compound 0.1 µM) it was 0.112; with RAF265 + Pictilisib (first compound 0.3162 µM) it was 0.145; with RAF265 + Pictilisib (first compound 1 µM) it was 0.107; with Doramapimod + Vorinostat (first compound 0.02 µM), 0.73. Besides, the relative viability is 0.635 with Doramapimod + Vorinostat (first compound 0.06325 µM); 0.747 with Doramapimod + Vorinostat (first compound 0.2 µM); 0.615 in the assay with Doramapimod + Vorinostat (first compound 0.6325 µM); 0.56 with Doramapimod + Vorinostat (first compound 2 µM); 0.99 in the assay with IPA-3 + Luminespib (first compound 0.2 µM); 0.733 with IPA-3 + Luminespib (first compound 0.6325 µM). Further, the relative viability with IPA-3 + Luminespib (first compound 2 µM) stood at 0.608; in the assay with IPA-3 + Luminespib (first compound 6.325 µM), 0.855; with IPA-3 + Luminespib (first compound 20 µM), 0.783; with RAF265 + Vorinostat (first compound 0.01 µM), 0.719; with RAF265 + Vorinostat (first compound 0.03162 µM), 0.508; with RAF265 + Vorinostat (first compound 0.1 µM), 0.544. Moreover, the figures for the relative viability with RAF265 + Vorinostat (first compound 0.3162 µM) and in the assay with RAF265 + Vorinostat (first compound 1 µM) were 0.525 and 0.421, respectively.

As for NCI-H522, the relative viability with Doramapimod + Vorinostat (first compound 0.02 µM) turned out to be 0.963; in the assay with Doramapimod + Vorinostat (first compound 0.06325 µM), 1.05; with Doramapimod + Vorinostat (first compound 0.2 µM), 0.871; with Doramapimod + Vorinostat (first compound 0.6325 µM), 0.845; with Doramapimod + Vorinostat (first compound 2 µM) it was 0.874; with IPA-3 + Luminespib (first compound 0.2 µM), 1.34. Further, the relative viability is 1.05 in the assay with IPA-3 + Luminespib (first compound 0.6325 µM); 1.25 with IPA-3 + Luminespib (first compound 2 µM); 1.05 with IPA-3 + Luminespib (first compound 6.325 µM); 1.07 in the assay with IPA-3 + Luminespib (first compound 20 µM); 0.841 with RAF265 + Vorinostat (first compound 0.01 µM); 1.02 with RAF265 + Vorinostat (first compound 0.03162 µM). Also, the relative viability with RAF265 + Vorinostat (first compound 0.1 µM) is 1.05; in the assay with RAF265 + Vorinostat (first compound 0.3162 µM), 0.872; in the assay with RAF265 + Vorinostat (first compound 1 µM), 0.857.

Regarding NCI-H1299, the relative viability with RAF265 + Pictilisib (first compound 0.01 µM) is 0.683; with RAF265 + Pictilisib (first compound 0.03162 µM) it was 0.407; with RAF265 + Pictilisib (first compound 0.1 µM) it was 0.223; with RAF265 + Pictilisib (first compound 0.3162 µM), 0.246; in the assay with RAF265 + Pictilisib (first compound 1 µM), 0.198.

Turning to NCI-H1563, the relative viability in the assay with RAF265 + Pictilisib (first compound 0.01 µM) amounted to 0.648; with RAF265 + Pictilisib (first compound 0.03162 µM), 0.742; with RAF265 + Pictilisib (first compound 0.1 µM) it was 0.626; with RAF265 + Pictilisib (first compound 0.3162 µM), 0.604; in the assay with RAF265 + Pictilisib (first compound 1 µM) it was 0.718; with IPA-3 + Luminespib (first compound 0.2 µM), 0.514. Besides, the relative viability came out at 0.526 in the assay with IPA-3 + Luminespib (first compound 0.6325 µM), 0.532 with IPA-3 + Luminespib (first compound 2 µM), 0.512 with IPA-3 + Luminespib (first compound 6.325 µM) and 0.437 in the assay with IPA-3 + Luminespib (first compound 20 µM).

On to NCI-H1623, for which the relative viability is 0.574 in the assay with IPA-3 + Luminespib (first compound 0.2 µM); 0.481 in the assay with IPA-3 + Luminespib (first compound 0.6325 µM); 0.675 in the assay with IPA-3 + Luminespib (first compound 2 µM); 0.516 with IPA-3 + Luminespib (first compound 6.325 µM); 0.556 with IPA-3 + Luminespib (first compound 20 µM).

As to NCI-H1648, the relative viability worked out at 0.348 in the assay with Doramapimod + Vorinostat (first compound 0.02 µM); 0.405 with Doramapimod + Vorinostat (first compound 0.06325 µM); 0.52 with Doramapimod + Vorinostat (first compound 0.2 µM); 0.709 with Doramapimod + Vorinostat (first compound 0.6325 µM); 0.224 with Doramapimod + Vorinostat (first compound 2 µM); 0.464 with RAF265 + Vorinostat (first compound 0.01 µM). For the same cell line, the relative viability was 0.539 with RAF265 + Vorinostat (first compound 0.03162 µM), 0.352 with RAF265 + Vorinostat (first compound 0.1 µM), 0.317 in the assay with RAF265 + Vorinostat (first compound 0.3162 µM) and 0.263 with RAF265 + Vorinostat (first compound 1 µM).

For NCI-H1703, the relative viability with RAF265 + Pictilisib (first compound 0.01 µM) is 0.239; with RAF265 + Pictilisib (first compound 0.03162 µM), 0.214; with RAF265 + Pictilisib (first compound 0.1 µM), 0.218; in the assay with RAF265 + Pictilisib (first compound 0.3162 µM) it was 0.238; in the assay with RAF265 + Pictilisib (first compound 1 µM), 0.196.

NCI-H1792: the relative viability came to 0.277 in the assay with RAF265 + Pictilisib (first compound 0.01 µM); 0.279 in the assay with RAF265 + Pictilisib (first compound 0.03162 µM); 0.223 in the assay with RAF265 + Pictilisib (first compound 0.1 µM); 0.166 in the assay with RAF265 + Pictilisib (first compound 0.3162 µM); 0.0856 in the assay with RAF265 + Pictilisib (first compound 1 µM); 0.475 with IPA-3 + Luminespib (first compound 0.2 µM). Further, the relative viability came to 0.529 with IPA-3 + Luminespib (first compound 0.6325 µM), 0.418 with IPA-3 + Luminespib (first compound 2 µM), 0.38 in the assay with IPA-3 + Luminespib (first compound 6.325 µM) and 0.615 with IPA-3 + Luminespib (first compound 20 µM).

With NCI-H2342, the relative viability in the assay with Doramapimod + Vorinostat (first compound 0.02 µM) came out at 0.761; in the assay with Doramapimod + Vorinostat (first compound 0.06325 µM), 0.747; with Doramapimod + Vorinostat (first compound 0.2 µM) it was 0.806; with Doramapimod + Vorinostat (first compound 0.6325 µM), 0.849; in the assay with Doramapimod + Vorinostat (first compound 2 µM), 0.829; in the assay with IPA-3 + Luminespib (first compound 0.2 µM), 0.701. Moreover, the relative viability came out at 0.677 in the assay with IPA-3 + Luminespib (first compound 0.6325 µM); 0.747 with IPA-3 + Luminespib (first compound 2 µM); 0.802 in the assay with IPA-3 + Luminespib (first compound 6.325 µM); 0.765 with IPA-3 + Luminespib (first compound 20 µM); 0.714 with RAF265 + Vorinostat (first compound 0.01 µM); 0.809 in the assay with RAF265 + Vorinostat (first compound 0.03162 µM). The relative viability with RAF265 + Vorinostat (first compound 0.1 µM) was 0.851; in the assay with RAF265 + Vorinostat (first compound 0.3162 µM), 0.667; with RAF265 + Vorinostat (first compound 1 µM) it was 0.764.

Consider SW 900, for which the relative viability in the assay with Doramapimod + Vorinostat (first compound 0.02 µM) is 0.571; with Doramapimod + Vorinostat (first compound 0.06325 µM), 0.514; in the assay with Doramapimod + Vorinostat (first compound 0.2 µM) it was 0.546; in the assay with Doramapimod + Vorinostat (first compound 0.6325 µM), 0.584; in the assay with Doramapimod + Vorinostat (first compound 2 µM), 0.436; with IPA-3 + Luminespib (first compound 0.2 µM), 0.211. Besides, the relative viability in the assay with IPA-3 + Luminespib (first compound 0.6325 µM) was found to be 0.184; with IPA-3 + Luminespib (first compound 2 µM), 0.165; with IPA-3 + Luminespib (first compound 6.325 µM), 0.181; in the assay with IPA-3 + Luminespib (first compound 20 µM), 0.212; with RAF265 + Vorinostat (first compound 0.01 µM), 0.544; with RAF265 + Vorinostat (first compound 0.03162 µM) it was 0.494. For the same cell line, the relative viability with RAF265 + Vorinostat (first compound 0.1 µM) stood at 0.503; in the assay with RAF265 + Vorinostat (first compound 0.3162 µM), 0.381; in the assay with RAF265 + Vorinostat (first compound 1 µM) it was 0.227.
